Data as given in ChEMBL document CHEMBL3044562, “Survival and developmental impairment induced by the trypsin inhibitor bis-benzamidine in the velvetbean caterpillar (Anticarsia gemmatalis)” (Crop Prot, 2011).
The source made the active and inactive calls.

Experiments:
Format in all cases: functional, organism-based
Anticarsia gemmatalis [1] = experiment: Insecticidal activity against Anticarsia gemmatalis (velvetbean caterpillar) assessed as reduction in survival at > 76 ppm for more than 15 days
Anticarsia gemmatalis [2] = experiment: Effect on diet consumption in Anticarsia gemmatalis (velvetbean caterpillar) assessed as double the consumption at 76 ppm relative to control
Anticarsia gemmatalis [3] = experiment: Insecticidal activity against Anticarsia gemmatalis (velvetbean caterpillar) assessed as reduction in survival time at > 100 ppm
Anticarsia gemmatalis [4] = experiment: Insecticidal activity against Anticarsia gemmatalis (velvetbean caterpillar) assessed as specific amidolytic and esterolytic activity in midgut at 9.5 ppm
Anticarsia gemmatalis [5] = experiment: Increase in protein digestibility in Anticarsia gemmatalis (velvetbean caterpillar) assessed as double the consumption at 76 ppm
Anticarsia gemmatalis [6] = experiment: Insecticidal activity against Anticarsia gemmatalis (velvetbean caterpillar) assessed as decrease in pupa weight upto 80 ppm
Anticarsia gemmatalis [7] = experiment: Insecticidal activity against Anticarsia gemmatalis (velvetbean caterpillar) assessed as prolongation of larval development upto 76 ppm
Anticarsia gemmatalis [8] = experiment: Insecticidal activity against Anticarsia gemmatalis (velvetbean caterpillar) assessed as reduction in survival time at over 150 ppm
Anticarsia gemmatalis [9] = experiment: Insecticidal activity against Anticarsia gemmatalis (velvetbean caterpillar) assessed as sharp decline in proteolytic activity in midgut using L-BApNA and L-TAME at 9.5 ppm

N=C(N)c1ccc(/N=N/Nc2ccc(C(=N)N)cc2)cc1
active: inhibition (Anticarsia gemmatalis [1]) | Activity (Anticarsia gemmatalis [2]) | inhibition (Anticarsia gemmatalis [3]) | inhibition (Anticarsia gemmatalis [4]) | Activity (Anticarsia gemmatalis [5]) | inhibition (Anticarsia gemmatalis [6]) | Activity (Anticarsia gemmatalis [7]) | inhibition (Anticarsia gemmatalis [8]) | inhibition (Anticarsia gemmatalis [9])
